# Laboratory results: ChEMBL document CHEMBL4311992, “Discovery of 3-(((9H-purin-6-yl)amino)methyl)-4,6-dimethylpyridin-2(1H)-one derivatives as novel tubulin polymerization inhibitors for treatment of cancer” (Eur J Med Chem, 2019)
# Calls of active or inactive are those of the source. No cut-off for these calls is given here.
# Legend:
# HCT-116 = test: Inhibition of colony formation in human HCT116 cells at 50 nM after 14 days by crystal violet staining-based microscopic analysis; format: functional; settings: HCT-116, 336 h
# [1] = biological target: Ribosomal protein S6 kinase alpha-6 (Homo sapiens) (UniProt Q9UK32); test: Inhibition of recombinant full-length human Rsk4 assessed as residual activity at 10 uM using LRRASLG as substrate measured after 40 mins in presence of [gamma33P]ATP by scintillation counting method
# [2] = biological target: Protein kinase C iota type (Homo sapiens) (UniProt P41743); test: Inhibition of recombinant full-length human PKCiota assessed as residual activity at 10 uM using ERMRPRKRQGSVRRRV as substrate measured after 40 mins in presence of [gamma33P]ATP by scintillation counting method
# Chain of Protein kinase C iota type (Homo sapiens) (P41743 whole entry): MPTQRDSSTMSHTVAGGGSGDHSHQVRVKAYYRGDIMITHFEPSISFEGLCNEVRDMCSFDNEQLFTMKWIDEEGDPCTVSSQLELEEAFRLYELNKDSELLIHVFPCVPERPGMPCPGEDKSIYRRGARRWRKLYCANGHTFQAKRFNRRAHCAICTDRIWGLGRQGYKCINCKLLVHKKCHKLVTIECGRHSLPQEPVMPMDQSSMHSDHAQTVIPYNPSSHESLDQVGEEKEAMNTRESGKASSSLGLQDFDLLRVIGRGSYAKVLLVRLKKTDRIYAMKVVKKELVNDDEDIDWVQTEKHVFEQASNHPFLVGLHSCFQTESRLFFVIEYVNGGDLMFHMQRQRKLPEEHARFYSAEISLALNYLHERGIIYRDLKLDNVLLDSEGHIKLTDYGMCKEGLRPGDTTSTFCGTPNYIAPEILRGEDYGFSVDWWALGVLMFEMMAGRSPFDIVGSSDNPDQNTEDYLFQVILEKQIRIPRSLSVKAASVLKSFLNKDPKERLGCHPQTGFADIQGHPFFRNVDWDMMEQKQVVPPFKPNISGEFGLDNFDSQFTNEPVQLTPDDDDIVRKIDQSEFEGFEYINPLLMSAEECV
# [3] = biological target: Protein kinase C epsilon type (Homo sapiens) (UniProt Q02156); test: Inhibition of recombinant human PKCepsilon (2 to end residues) assessed as residual activity at 10 uM using ERMRPRKRQGSVRRRV as substrate measured after 40 mins in presence of [gamma33P]ATP by scintillation counting method
# Chain of Protein kinase C epsilon type (Homo sapiens) (Q02156 whole entry): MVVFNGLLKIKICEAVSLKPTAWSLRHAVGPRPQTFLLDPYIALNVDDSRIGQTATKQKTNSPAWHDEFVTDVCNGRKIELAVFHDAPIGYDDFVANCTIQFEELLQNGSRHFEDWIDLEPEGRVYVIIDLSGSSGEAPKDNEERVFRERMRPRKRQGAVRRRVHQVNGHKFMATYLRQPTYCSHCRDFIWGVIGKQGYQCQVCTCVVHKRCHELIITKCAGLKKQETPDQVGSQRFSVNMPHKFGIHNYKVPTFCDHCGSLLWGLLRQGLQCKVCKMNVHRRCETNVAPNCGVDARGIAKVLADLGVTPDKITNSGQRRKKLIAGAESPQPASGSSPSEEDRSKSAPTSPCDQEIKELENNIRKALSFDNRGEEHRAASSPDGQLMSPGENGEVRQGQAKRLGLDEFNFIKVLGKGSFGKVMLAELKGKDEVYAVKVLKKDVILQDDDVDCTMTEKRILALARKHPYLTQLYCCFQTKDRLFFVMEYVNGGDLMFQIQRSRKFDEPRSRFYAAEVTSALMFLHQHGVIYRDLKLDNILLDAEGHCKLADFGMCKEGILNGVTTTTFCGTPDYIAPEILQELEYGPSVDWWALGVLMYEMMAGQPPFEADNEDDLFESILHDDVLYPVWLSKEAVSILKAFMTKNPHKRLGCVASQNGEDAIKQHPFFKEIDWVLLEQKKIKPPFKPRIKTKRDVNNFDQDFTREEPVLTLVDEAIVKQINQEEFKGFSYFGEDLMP
# [4] = biological target: Protein kinase C delta type (Homo sapiens) (UniProt Q05655); test: Inhibition of recombinant human PKCdelta (2 to end residues) assessed as residual activity at 10 uM using ERMRPRKRQGSVRRRV as substrate measured after 40 mins in presence of [gamma33P]ATP by scintillation counting method
# [5] = biological target: Serine/threonine-protein kinase Nek6 (Homo sapiens) (UniProt Q9HC98); test: Inhibition of recombinant human NEK6 (2 to end residues) assessed as residual activity at 10 uM using FLAKSFGSPNRAYKK as substrate measured after 40 mins in presence of [gamma33P]ATP by scintillation counting method
# [6] = biological target: Maternal embryonic leucine zipper kinase (Homo sapiens) (UniProt Q14680); test: Inhibition of recombinant human MELK (1 to 340 residues) assessed as residual activity at 10 uM using KKLNRTLSFAEPG as substrate measured after 40 mins in presence of [gamma33P]ATP by scintillation counting method
# Chain of Maternal embryonic leucine zipper kinase (Homo sapiens) (Q14680 whole entry, looked up, the tested form may be a part): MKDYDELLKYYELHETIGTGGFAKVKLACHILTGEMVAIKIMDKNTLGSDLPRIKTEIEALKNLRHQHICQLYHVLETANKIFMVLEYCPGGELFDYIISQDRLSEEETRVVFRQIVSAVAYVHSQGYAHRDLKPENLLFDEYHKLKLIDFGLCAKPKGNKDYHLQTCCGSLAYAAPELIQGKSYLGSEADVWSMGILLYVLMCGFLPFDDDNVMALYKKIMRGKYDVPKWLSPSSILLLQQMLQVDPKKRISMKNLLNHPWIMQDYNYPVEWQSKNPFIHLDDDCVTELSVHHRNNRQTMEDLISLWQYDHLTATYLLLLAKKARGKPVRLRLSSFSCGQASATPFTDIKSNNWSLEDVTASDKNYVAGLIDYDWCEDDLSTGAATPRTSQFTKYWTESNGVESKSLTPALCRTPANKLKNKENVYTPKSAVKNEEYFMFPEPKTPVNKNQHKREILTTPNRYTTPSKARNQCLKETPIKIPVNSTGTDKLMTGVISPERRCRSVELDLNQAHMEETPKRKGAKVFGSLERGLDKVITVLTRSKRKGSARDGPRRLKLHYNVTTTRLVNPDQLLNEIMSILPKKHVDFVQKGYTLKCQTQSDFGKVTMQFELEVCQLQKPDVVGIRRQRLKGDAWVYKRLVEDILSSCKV
# [7] = biological target: Insulin receptor (Homo sapiens) (UniProt P06213); test: Inhibition of recombinant human activated IR (1005 to 1310 residues) assessed as residual activity at 10 uM using KKKSPGEYVNIEFG as substrate measured after 40 mins in presence of [gamma33P]ATP by scintillation counting method
# [8] = system: CDK18/Cyclin Y (Homo sapiens), Q07002+Q8ND76 [T166M]; test: Inhibition of recombinant full length human cyclinY/CDK18 T166M mutant assessed as residual activity at 10 uM using YRRAAVPPSPSLS as substrate measured after 40 mins in presence of [gamma33P]ATP by scintillation counting method; format: protein-complex assay
# [9] = biological target: Histone-lysine N-methyltransferase EZH2 (Homo sapiens) (UniProt Q15910); test: Inhibition of EZH2 (unknown origin) at 10 uM relative to control
# Chain of Histone-lysine N-methyltransferase EZH2 (Homo sapiens) (Q15910 whole entry, looked up): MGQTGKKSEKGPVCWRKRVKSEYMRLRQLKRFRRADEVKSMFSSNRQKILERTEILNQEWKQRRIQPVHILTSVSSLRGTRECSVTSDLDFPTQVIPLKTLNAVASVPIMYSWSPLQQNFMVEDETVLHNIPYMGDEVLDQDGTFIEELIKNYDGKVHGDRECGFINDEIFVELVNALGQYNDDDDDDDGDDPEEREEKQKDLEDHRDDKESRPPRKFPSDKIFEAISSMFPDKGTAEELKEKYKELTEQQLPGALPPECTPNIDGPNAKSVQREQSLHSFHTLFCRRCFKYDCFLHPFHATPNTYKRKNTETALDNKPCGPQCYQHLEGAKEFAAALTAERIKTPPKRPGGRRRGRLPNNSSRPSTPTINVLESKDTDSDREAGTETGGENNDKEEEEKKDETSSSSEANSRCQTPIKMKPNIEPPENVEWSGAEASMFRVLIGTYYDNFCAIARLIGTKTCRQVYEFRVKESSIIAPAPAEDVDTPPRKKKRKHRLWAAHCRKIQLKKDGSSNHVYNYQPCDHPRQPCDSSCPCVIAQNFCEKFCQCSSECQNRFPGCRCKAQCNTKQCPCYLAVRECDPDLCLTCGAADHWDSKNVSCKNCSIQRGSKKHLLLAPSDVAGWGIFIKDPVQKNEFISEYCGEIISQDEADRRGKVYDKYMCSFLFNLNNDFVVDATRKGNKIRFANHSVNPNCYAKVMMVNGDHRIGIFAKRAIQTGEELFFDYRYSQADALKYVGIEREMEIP
# [10] = biological target: NT-3 growth factor receptor (Homo sapiens) (UniProt Q16288); test: Inhibition of human TrkC (510 to end residues) using GEEPLYWSFPAKKK as substrate measured after 40 mins in presence of [gamma33P]ATP by scintillation counting method; parameters: scale not given: the % may be the effect or the level left
# [11] = biological target: Aurora kinase C (Homo sapiens) (UniProt Q9UQB9); test: Inhibition of recombinant human AURKC (35 to end residues) assessed as residual activity at 10 uM using AKRRRLSSLRA as substrate measured after 40 mins in presence of [gamma33P]ATP by scintillation counting method
# Chain of Aurora kinase C (Homo sapiens) (Q9UQB9 whole entry): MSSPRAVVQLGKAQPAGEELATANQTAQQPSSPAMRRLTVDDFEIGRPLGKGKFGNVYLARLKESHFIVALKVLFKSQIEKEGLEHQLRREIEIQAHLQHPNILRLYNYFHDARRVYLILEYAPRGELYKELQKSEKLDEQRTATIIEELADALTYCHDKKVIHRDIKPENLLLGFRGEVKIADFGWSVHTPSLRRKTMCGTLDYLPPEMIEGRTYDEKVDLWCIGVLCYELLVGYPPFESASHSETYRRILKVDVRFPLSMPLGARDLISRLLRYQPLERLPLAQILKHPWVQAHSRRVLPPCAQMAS
# [12] = biological target: Eukaryotic translation initiation factor 2-alpha kinase 1 (Homo sapiens) (UniProt Q9BQI3); test: Inhibition of recombinant human HRI (140 to end residues) assessed as residual activity at 10 uM using RSRSRSRSRSRSRSR as substrate measured after 120 mins in presence of [gamma33P]ATP by scintillation counting method
# Chain of Eukaryotic translation initiation factor 2-alpha kinase 1 (Homo sapiens) (Q9BQI3 whole entry, the tested form may be a part): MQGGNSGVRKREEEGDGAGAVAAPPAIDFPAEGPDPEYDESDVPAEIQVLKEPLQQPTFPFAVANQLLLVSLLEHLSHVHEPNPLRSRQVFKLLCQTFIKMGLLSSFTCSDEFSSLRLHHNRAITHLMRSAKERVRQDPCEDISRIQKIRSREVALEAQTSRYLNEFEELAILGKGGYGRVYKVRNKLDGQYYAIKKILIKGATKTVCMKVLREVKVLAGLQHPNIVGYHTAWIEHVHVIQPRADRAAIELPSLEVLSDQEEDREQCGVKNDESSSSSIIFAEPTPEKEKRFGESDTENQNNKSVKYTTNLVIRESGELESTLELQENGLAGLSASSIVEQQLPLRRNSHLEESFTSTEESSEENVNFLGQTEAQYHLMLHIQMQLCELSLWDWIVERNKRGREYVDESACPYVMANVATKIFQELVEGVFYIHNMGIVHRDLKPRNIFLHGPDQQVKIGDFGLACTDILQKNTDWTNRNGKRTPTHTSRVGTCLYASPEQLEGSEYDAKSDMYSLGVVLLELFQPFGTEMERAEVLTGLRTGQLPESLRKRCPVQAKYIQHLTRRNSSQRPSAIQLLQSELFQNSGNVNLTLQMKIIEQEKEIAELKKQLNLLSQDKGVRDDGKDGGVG
# [13] = biological target: Receptor tyrosine-protein kinase erbB-4 (Homo sapiens) (UniProt Q15303); test: Inhibition of recombinant human ErbB4 (706 to 991 residues) assessed as residual activity at 10 uM using poly (Glu, Tyr) 4:1 as substrate measured after 40 mins in presence of [gamma33P]ATP by scintillation counting method
# [14] = biological target: 5'-AMP-activated protein kinase catalytic subunit alpha-2 (Homo sapiens) (UniProt P54646); test: Inhibition of recombinant full-length human AMPKalpha2 assessed as residual activity at 10 uM using AMARAASAAALARRR as substrate measured after 40 mins in presence of [gamma33P]ATP by scintillation counting method
# SW-620 [15] = test: Induction of apoptosis in human SW620 cells assessed as increase in cleaved caspase3 expression up to 200 nM measured after 48 hrs by Western blot analysis; format: functional, cell-based
# [16] = system: Discoidin domain-containing receptor 2 (Homo sapiens), Q16832 [UNDEFINED MUTATION]; test: Inhibition of recombinant human DDR2 S642A mutant (467 to end residues) assessed as residual activity at 10 uM using KKSRGDYMTMQIG as substrate measured after 40 mins in presence of [gamma33P]ATP by scintillation counting method
# [17] = biological target: Mitogen-activated protein kinase kinase kinase kinase 2 (Homo sapiens) (UniProt Q12851); test: Inhibition of recombinant human GCK assessed as residual activity at 10 uM using myelin basic protein as substrate measured after 40 mins in presence of [gamma33P]ATP by scintillation counting method
# Chain of Mitogen-activated protein kinase kinase kinase kinase 2 (Homo sapiens) (Q12851 whole entry, the tested form may be a part): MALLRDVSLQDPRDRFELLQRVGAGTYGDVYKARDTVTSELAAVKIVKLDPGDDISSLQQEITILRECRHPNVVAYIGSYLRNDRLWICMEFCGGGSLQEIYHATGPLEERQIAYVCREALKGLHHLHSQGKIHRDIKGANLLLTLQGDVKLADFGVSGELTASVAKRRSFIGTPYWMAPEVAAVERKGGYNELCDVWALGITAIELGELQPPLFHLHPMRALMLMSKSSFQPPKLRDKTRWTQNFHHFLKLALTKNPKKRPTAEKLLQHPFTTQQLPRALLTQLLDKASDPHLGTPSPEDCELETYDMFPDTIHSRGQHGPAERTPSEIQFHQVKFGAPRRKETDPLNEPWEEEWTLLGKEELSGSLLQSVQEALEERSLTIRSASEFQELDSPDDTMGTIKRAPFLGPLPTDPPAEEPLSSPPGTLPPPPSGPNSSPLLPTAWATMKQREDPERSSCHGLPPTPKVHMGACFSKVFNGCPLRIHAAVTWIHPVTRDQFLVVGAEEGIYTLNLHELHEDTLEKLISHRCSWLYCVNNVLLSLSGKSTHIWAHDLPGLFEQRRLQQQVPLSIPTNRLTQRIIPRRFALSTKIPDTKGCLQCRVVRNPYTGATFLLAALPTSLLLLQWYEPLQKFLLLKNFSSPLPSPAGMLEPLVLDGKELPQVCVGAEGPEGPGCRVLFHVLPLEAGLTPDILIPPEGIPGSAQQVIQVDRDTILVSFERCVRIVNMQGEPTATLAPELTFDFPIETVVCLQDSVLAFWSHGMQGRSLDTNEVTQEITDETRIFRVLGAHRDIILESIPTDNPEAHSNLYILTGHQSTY
# [18] = biological target: Mitogen-activated protein kinase kinase kinase kinase 3 (Homo sapiens) (UniProt Q8IVH8); test: Inhibition of recombinant human MAP4K3 (1 to 291 residues) assessed as residual activity at 10 uM using RLGRDKYKTLRQIRQ as substrate measured after 40 mins in presence of [gamma33P]ATP by scintillation counting method
# [19] = biological target: [Pyruvate dehydrogenase (acetyl-transferring)] kinase isozyme 2, mitochondrial (Homo sapiens) (UniProt Q15119); test: Inhibition of human PDHK2 assessed as residual activity at 10 uM by radiometric method
# [20] = biological target: Phosphorylase b kinase gamma catalytic chain, skeletal muscle/heart isoform (Homo sapiens) (UniProt Q16816); test: Inhibition of recombinant full-length human PhKgamma1 assessed as residual activity at 10 uM using KKLNRTLSFAEPG as substrate measured after 120 mins in presence of [gamma33P]ATP by scintillation counting method
# Chain of Phosphorylase b kinase gamma catalytic chain, skeletal muscle/heart isoform (Homo sapiens) (Q16816 whole entry, looked up, canonical isoform): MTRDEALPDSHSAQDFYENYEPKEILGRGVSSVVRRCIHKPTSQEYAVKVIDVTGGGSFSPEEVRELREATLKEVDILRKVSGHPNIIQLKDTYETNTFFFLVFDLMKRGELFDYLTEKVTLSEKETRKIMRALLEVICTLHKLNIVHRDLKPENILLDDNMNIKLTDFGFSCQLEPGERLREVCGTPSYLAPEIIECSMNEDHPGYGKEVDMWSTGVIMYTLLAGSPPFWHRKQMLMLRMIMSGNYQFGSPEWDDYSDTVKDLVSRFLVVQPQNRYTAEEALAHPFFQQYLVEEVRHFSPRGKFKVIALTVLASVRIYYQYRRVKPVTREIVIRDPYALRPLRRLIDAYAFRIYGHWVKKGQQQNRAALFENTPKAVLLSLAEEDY
# [21] = biological target: Serine/threonine-protein kinase WNK4 (Homo sapiens) (UniProt Q96J92); test: Inhibition of human WNK4 using myelin basic protein as substrate measured after 120 mins in presence of [gamma33P]ATP by scintillation counting method; parameters: scale not given: the % may be the effect or the level left
# SW-620 [22] = test: Induction of apoptosis in human SW620 cells assessed as early apoptotic cells at 100 nM measured after 48 hrs by Annexin V-FITC/propidium iodide staining-based flow cytometry (reference value: 0.773%); format: functional
# SW-620 [23] = test: Induction of apoptosis in human SW620 cells assessed as necrotic cells at 25 nM measured after 48 hrs by Annexin V-FITC/propidium iodide staining-based flow cytometry (reference value: 2.71%); format: functional
smiles,measurement,setting,value
Cc1cc(C)c(CNc2nc(Cl)nc3c2ncn3C2CCCC2)c(=O)[nH]1,inhibition at 0.05 µM,HCT-116,100%
same,Activity,[1],98.5%
same,Activity,[2],105%
same,Activity,[3],95%
same,Activity,[4],111%
same,Activity,[5],108%
same,Activity,[6],114%
same,Activity,[7],101%
same,Activity,[8],101%
same,inhibition,[9],-9%
same,Activity,[10],110%
same,Activity,[11],106%
same,Activity,[12],102%
same,Activity,[13],103%
same,Activity,[14],117%
same,Activity,SW-620 [15],Active
same,Activity,[16],97%
same,Activity,[17],100%
same,Activity,[18],104%
same,Activity,[19],128%
same,Activity,[20],104%
same,Activity,[21],98.5%
same,Activity,SW-620 [22],3.55%
same,Activity,SW-620 [23],2.71%
